The record followed here is patent US12412916B2, “Fuel cell with polymer electrolyte membrane” (HYUNDAI MOTOR COMPANY, priority 2022, dated 2025).

Series [1] is classed as physicochemical. The procedure:
The thermal stability was confirmed through thermogravimetric analysis (TGA), and specifically, each compound sample was put into a heating furnace of the thermogravimetric analyzer, and the temperature was elevated from room temperature to 120° C. at 20° C./min and maintained for 10 minutes, thereby removing the remaining water and performing stabilization. Thereafter, the weight change of the sample was measured while cooling to 60° C. at 20° C./min and heating from 60° C. to 800° C. at 10° C./min in a nitrogen atmosphere, and the results are shown in Table 1 below.

The format of series [2] is physicochemical. Here is the method:
The solubility of each compound sample was observed by dissolving the same amount in a total of six solvents, including water, dimethylacetamide (DMAc), methanol, ethanol, 1-propanol and 2-propanol, and the results are shown in Table 1 and FIG. 4. In the results, if the phase separation is not visible with the naked eye and the sample is dissolved well, it is indicated as ∘, and if the phase separation is visible or the sample is not dissolved, it is indicated as x.
This is another data set of the same source.

The structures appear in SMILES notation.

As to `CC(C)(C)c1cc(C(F)(F)C(F)(F)OC(F)(F)C(F)(F)S(=O)(=O)O)cc(C(C)(C)C)c1O` [Example 1, sodium 2-(2-(3,5-di-tert-butyl-4-oxidophenyl)-1,1,2,2-tetrafluoroethoxy)-1,1,2,2-tetrafluoroethanesulfonate], the “Thermal stability 5% decomposition temperature” value in series [1] was found to be 255 °C. In series [2], the “Solubility 1-propanol” value was “○”, the “Solubility 2-propanol” value is recorded as “○”, the “Solubility DMAc” value is “○” and the “Solubility Ethanol” value is recorded as “○”. Also, in series [2], the “Solubility Methanol” value is “○” and the “Solubility in water (in words)” value is on record as “not dissolved in water”.
